Assay results reported in patent US8546375B2, “(3-(4-(aminomethyl)phenoxy or phenylthio)azetidin-1-yl)(5-phenyl-1,3,4-oxadiazol-2-yl)methanone compounds” (AstraZeneca AB, priority 2010, dated 2013).
Where a name gives a salt, the structure may show the parent alone.

Molecular target: T1, Melanin Concentrating Hormone Receptor 1 (MCHR1) (Homo sapiens, UniProt Q99705)
T1 construct: expressed in transfected cells
Experiment: MCHR1 Receptor Activation Assay (GTPγ^35S)
Assay type: biochemical
Conditions: read-out: GTPγ^35S IC50

T1 sequence (Q99705 whole entry): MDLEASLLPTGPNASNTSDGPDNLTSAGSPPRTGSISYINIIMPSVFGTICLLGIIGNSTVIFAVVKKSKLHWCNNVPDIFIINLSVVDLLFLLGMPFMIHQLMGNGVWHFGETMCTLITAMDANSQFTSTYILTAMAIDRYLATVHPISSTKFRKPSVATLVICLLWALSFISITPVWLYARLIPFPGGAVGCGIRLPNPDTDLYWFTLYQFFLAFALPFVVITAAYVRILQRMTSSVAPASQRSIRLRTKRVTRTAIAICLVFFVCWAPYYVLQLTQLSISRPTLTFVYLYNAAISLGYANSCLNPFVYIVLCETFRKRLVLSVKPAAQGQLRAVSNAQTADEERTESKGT

In order of rising IC50:
1. CC1(O)CCCN(Cc2ccc(OC3CN(C(=O)c4nnc(-c5ccccc5)o4)C3)cc2)CC1 (stereo not shown) [Example 87, (3-(4-((4-hydroxy-4-methylazepan-1-yl)methyl)phenoxy)azetidin-1-yl)(5-phenyl-1,3,4-oxadiazol-2-yl)methanone]  8.1 nM
2. Cc1cc(OC2CN(C(=O)c3nnc(-c4ccc(Cl)cc4)o3)C2)ccc1CN(C)C [Example 44, (5-(4-Chlorophenyl)-1,3,4-oxadiazol-2-yl)(3-(4-((dimethylamino)methyl)-3-methylphenoxy)azetidin-1-yl)methanone]  10 nM
3. COc1ccc(-c2nnc(C(=O)N3CC(Oc4ccc(CN5CCC(C)(CO)C5)c(C)c4)C3)o2)cc1 (stereo not shown) [Example 91, (3-(4-((3-(hydroxymethyl)-3-methylpyrrolidin-1-yl)methyl)-3-methylphenoxy)azetidin-1-yl)(5-(4-methoxyphenyl)-1,3,4-oxadiazol-2-yl)methanone]  11 nM
4. COc1ccc(-c2nnc(C(=O)N3CC(Sc4ccc(CN5CCCC5)cc4)C3)o2)cc1 [Example 59, (5-(4-Methoxyphenyl)-1,3,4-oxadiazol-2-yl)(3-(4-(pyrrolidin-1-ylmethyl)phenylthio)azetidin-1-yl)methanone]  11 nM
5. CN(Cc1ccc(SC2CN(C(=O)c3nnc(-c4ccccc4)o3)C2)cc1)C1CCOCC1 [Example 64]  12 nM
6. COc1ccc(-c2nnc(C(=O)N3CC(Oc4ccc(CN5CC(O)(C6CC6)C5)cc4)C3)o2)cc1 [Example 56, (3-(4-((3-Cyclopropyl-3-hydroxyazetidin-1-yl)methyl)phenoxy)azetidin-1-yl)(5-(4-methoxyphenyl)-1,3,4-oxadiazol-2-yl)methanone]  13 nM
7. COC1CN(Cc2ccc(SC3CN(C(=O)c4nnc(-c5ccccc5)o4)C3)cc2)C1 [Example 62, (3-(4-((3-Methoxyazetidin-1-yl)methyl)phenylthio)azetidin-1-yl)(5-phenyl-1,3,4-oxadiazol-2-yl)methanone]  13 nM
8. COc1ccc(-c2nnc(C(=O)N3CC(Oc4ccc(CN5CCCC(O)CC5)cc4)C3)o2)cc1 (stereo not shown) [Example 86, (3-(4-((4-hydroxyazepan-1-yl)methyl)phenoxy)azetidin-1-yl)(5-(4-methoxyphenyl)-1,3,4-oxadiazol-2-yl)methanone]  15 nM
9. CCC1(CO)CCN(Cc2ccc(OC3CN(C(=O)c4nnc(-c5ccc(OC)cc5)o4)C3)cc2)CC1 [Example 92, (3-(4-((4-Ethyl-4-(hydroxymethyl)piperidin-1-yl)methyl)phenoxy)azetidin-1-yl)(5-(4-methoxyphenyl)-1,3,4-oxadiazol-2-yl)methanone]  15 nM
10. COc1ccc(-c2nnc(C(=O)N3CC(Oc4ccc(CN5CCC(C)(CO)C5)cc4C)C3)o2)cc1 (stereo not shown) [Example 90, (3-(4-((3-(hydroxymethyl)-3-methylpyrrolidin-1-yl)methyl)-2-methylphenoxy)azetidin-1-yl)(5-(4-methoxyphenyl)-1,3,4-oxadiazol-2-yl)methanone]  16 nM
11. COc1ccc(-c2nnc(C(=O)N3CC(Oc4ccc(CN5CCCC(C)(O)CC5)cc4)C3)o2)cc1 (stereo not shown) [Example 88, (3-(4-((4-hydroxy-4-methylazepan-1-yl)methyl)phenoxy)azetidin-1-yl)(5-(4-methoxyphenyl)-1,3,4-oxadiazol-2-yl)methanone]  17 nM
12. COC1CN(Cc2ccc(OC3CN(C(=O)c4nnc(-c5ccccc5)o4)C3)c(Cl)c2)C1 [Example 57, (3-(2-Chloro-4-((3-methoxyazetidin-1-yl)methyl)phenoxy)azetidin-1-yl)(5-phenyl-1,3,4-oxadiazol-2-yl)methanone]  18 nM
13. CC1(CO)CCN(Cc2ccc(OC3CN(C(=O)c4nnc(-c5ccccc5)o4)C3)cc2)C1 (stereo not shown) [Example 85, (3-(4-((3-(hydroxymethyl)-3-methylpyrrolidin-1-yl)methyl)phenoxy)azetidin-1-yl)(5-phenyl-1,3,4-oxadiazol-2-yl)methanone]  19 nM
14. Cc1ccc(-c2nnc(C(=O)N3CC(Oc4ccc(CN5CCCC5)cc4)C3)o2)cc1 [Example 6, (3-(4-(Pyrrolidin-1-ylmethyl)phenoxy)azetidin-1-yl)(5-p-tolyl-1,3,4-oxadiazol-2-yl)methanone hydrochloride]  19 nM
15. O=C(c1nnc(-c2ccccc2)o1)N1CC(Oc2ccc(CN3CCCC3)c(F)c2)C1 [Example 31, (3-(3-Fluoro-4-(pyrrolidin-1-ylmethyl)phenoxy)azetidin-1-yl)(5-phenyl-1,3,4-oxadiazol-2-yl)methanone]  20 nM
16. CN(Cc1ccc(SC2CN(C(=O)c3nnc(-c4ccccc4)o3)C2)cc1)CC1CCOC1 (stereo not shown) [Example 65, (3-(4-((Methyl((tetrahydrofuran-3-yl)methyl)amino)methyl)phenylthio)azetidin-1-yl)(5-phenyl-1,3,4-oxadiazol-2-yl)methanone]  20 nM
17. O=C(c1nnc(-c2ccc(F)cc2)o1)N1CC(Oc2ccc(CN3CCCC3)cc2)C1 [Example 4, (5-(4-Fluorophenyl)-1,3,4-oxadiazol-2-yl)(3-(4-(pyrrolidin-1-ylmethyl)phenoxy)azetidin-1-yl)methanone]  20 nM
18. COc1cc(OC2CN(C(=O)c3nnc(-c4ccccc4)o3)C2)ccc1CN1CCOCC1 [Example 7, (3-(3-Methoxy-4-(morpholinomethyl)phenoxy)azetidin-1-yl)(5-phenyl-1,3,4-oxadiazol-2-yl)methanone]  21 nM
19. COc1ccc(-c2nnc(C(=O)N3CC(Oc4ccc(CN5CC(OC)C5)cc4)C3)o2)cc1 [Example 55, (3-(4-((3-Methoxyazetidin-1-yl)methyl)phenoxy)azetidin-1-yl)(5-(4-methoxyphenyl)-1,3,4-oxadiazol-2-yl)methanone]  22 nM
20. O=C(c1nnc(-c2ccccc2)o1)N1CC(Sc2ccc(CN3CC(CO)C3)cc2)C1 [Example 67, (3-(4-((3-(Hydroxymethyl)azetidin-1-yl)methyl)phenylthio)azetidin-1-yl)(5-phenyl-1,3,4-oxadiazol-2-yl)methanone]  23 nM
21. CCC1(O)CN(Cc2ccc(OC3CN(C(=O)c4nnc(-c5ccccc5)o4)C3)cc2)C1 [Example 71, (3-(4-((3-Ethyl-3-hydroxyazetidin-1-yl)methyl)phenoxy)azetidin-1-yl)(5-phenyl-1,3,4-oxadiazol-2-yl)methanone]  23 nM
22. COc1ccc(-c2nnc(C(=O)N3CC(Oc4ccc(CN5CC(C)(O)C5)c(C)c4)C3)o2)cc1 [Example 80, (3-(4-((3-Hydroxy-3-methylazetidin-1-yl)methyl)-3-methylphenoxy)azetidin-1-yl)(5-(4-methoxyphenyl)-1,3,4-oxadiazol-2-yl)methanone]  23 nM
23. COc1ccc(-c2nnc(C(=O)N3CC(Oc4ccc(CN5CCC(C)(CO)CC5)cc4)C3)o2)cc1 [Example 83, (3-(4-((4-(Hydroxymethyl)-4-methylpiperidin-1-yl)methyl)phenoxy)azetidin-1-yl)(5-(4-methoxyphenyl)-1,3,4-oxadiazol-2-yl)methanone]  25 nM
24. Cc1ccc(-c2nnc(C(=O)N3CC(Oc4ccc(CN(C)C)cc4C)C3)o2)cc1 [Example 18, (3-(4-((Dimethylamino)methyl)-2-methylphenoxy)azetidin-1-yl)(5-p-tolyl-1,3,4-oxadiazol-2-yl)methanone]  25 nM
25. Cc1cc(CN2CCOCC2)ccc1OC1CN(C(=O)c2nnc(-c3ccccc3)o2)C1 [Example 14, (3-(2-Methyl-4-(morpholinomethyl)phenoxy)azetidin-1-yl)(5-phenyl-1,3,4-oxadiazol-2-yl)methanone]  30 nM
26. CN(C)Cc1ccc(OC2CN(C(=O)c3nnc(-c4ccccc4)o3)C2)cc1F [Example 26, (3-(4-((Dimethylamino)methyl)-3-fluorophenoxy)azetidin-1-yl)(5-phenyl-1,3,4-oxadiazol-2-yl)methanone]  30 nM
27. COc1ccc(-c2nnc(C(=O)N3CC(Oc4ccc(CN5CCOCC5)cc4C)C3)o2)cc1 [Example 12, (5-(4-Methoxyphenyl)-1,3,4-oxadiazol-2-yl)(3-(2-methyl-4-(morpholinomethyl)-phenoxy)azetidin-1-yl)methanone]  30 nM
28. CN1CCN(Cc2ccc(OC3CN(C(=O)c4nnc(-c5ccccc5)o4)C3)cc2Cl)CC1 [Example 50, (3-(3-Chloro-4-((4-methylpiperazin-1-yl)methyl)phenoxy)azetidin-1-yl)(5-phenyl-1,3,4-oxadiazol-2-yl)methanone]  35 nM
29. CC1(O)CN(Cc2ccc(OC3CN(C(=O)c4nnc(-c5ccccc5)o4)C3)c(Cl)c2)C1 [Example 78, (3-(2-Chloro-4-((3-hydroxy-3-methylazetidin-1-yl)methyl)phenoxy)azetidin-1-yl)(5-phenyl-1,3,4-oxadiazol-2-yl)methanone]  42 nM
30. Cc1cc(CN2CCN(C)CC2)ccc1OC1CN(C(=O)c2nnc(-c3ccccc3)o2)C1 [Example 9, (3-(2-Methyl-4-((4-methylpiperazin-1-yl)methyl)phenoxy)azetidin-1-yl)(5-phenyl-1,3,4-oxadiazol-2-yl)methanone]  44 nM
31. CN(C)Cc1ccc(OC2CN(C(=O)c3nnc(-c4ccccc4)o3)C2)c(F)c1F [Example 39, (3-(4-((Dimethylamino)methyl)-2,3-difluorophenoxy)azetidin-1-yl)(5-phenyl-1,3,4-oxadiazol-2-yl)methanone]  49 nM
32. Cc1ccc(-c2nnc(C(=O)N3CC(Oc4ccc(CN5CCN(C)CC5)cc4C)C3)o2)cc1 [Example 11, (3-(2-Methyl-4-((4-methylpiperazin-1-yl)methyl)phenoxy)azetidin-1-yl)(5-p-tolyl-1,3,4-oxadiazol-2-yl)methanone]  51 nM

Same assay, conditions: when tested in the above referenced assays (MCH binding assay; MCHR1 receptor activation assay); read-out: IC50 value

`COc1ccc(-c2nnc(C(=O)N3CC(Oc4ccc(CN(C)C)c(OC(F)F)c4)C3)o2)cc1` [(3-(3-(difluoromethoxy)-4-((dimethylamino)methyl)phenoxy)azetidin-1-yl)(5-(4-methoxyphenyl)-1,3,4-oxadiazol-2-yl)methanone] and `COCCN(CCOC)Cc1ccc(OC2CN(C(=O)c3nnc(-c4ccccc4)o3)C2)cc1` [(3-(4-((bis(2-methoxyethyl)amino)methyl)phenoxy)azetidin-1-yl)(5-phenyl-1,3,4-oxadiazol-2-yl)methanone] cannot be ordered by IC50: ≥ 100 nM for the first, ≥ 100 nM for the second.
